In patent publication US20220081387A1, “METHODS FOR PREPARING AMMONIUM TETRATHIOMOLYBDATE” (Alexion Pharmaceuticals, Inc., priority 2019, published 2022):

Assay: Long-term stability study of ATTM samples, determined by HPLC
Assay type: physicochemical
Protocol: ATTM Samples 1 and 2 were prepared essentially according to procedure in Example 1 starting with 12 kg of ammonium heptamolybdate. The isolated product was packed and stored immediately. Specifically, the samples were packaged corresponding to the packaging of the bulk material under argon in transparent anti-static polyethylene plastic bags, 90 10 10, 110 mm×170 mm, and the bags containing the samples were sealed with a plastic tie, and then subsequently packed in welded aluminium bags along with a drying agent in-between the two bags. Additional samples were packaged with ambient atmosphere in transparent anti-static polyethylene plastic bags, 90 10 10, 110 mm×170 mm. The bags containing the samples were sealed with a plastic tie, and then subsequently packed in welded aluminium bags along with a drying agent in-between the two bags.

[NH4+].[NH4+].[SH-].[SH-].[S]=[Mo]=[S] [Sample 1, ammonium tetrathiomolybdate]
(NH4)6Mo7O24 (5 °C, Air, 3 mo): <0.05 w/w %
ATTM (5 °C, Air, 3 mo): 99.2 w/w %
Dimer S6 (5 °C, Air, 3 mo): <0.05 w/w %
TM1 (5 °C, Air, 3 mo): <0.05 w/w %
TM2 (5 °C, Air, 3 mo): <0.05 w/w %
TM3 (5 °C, Air, 3 mo): 0.93 w/w %
(NH4)6Mo7O24 (5 °C, Air, 6 mo): <0.05 w/w %
ATTM (5 °C, Air, 6 mo): 98.6 w/w %
Dimer S6 (5 °C, Air, 6 mo): <0.05 w/w %
Insoluble materials (5 °C, Air, 6 mo): <0.1 w/w %
TM1 (5 °C, Air, 6 mo): <0.05 w/w %
TM2 (5 °C, Air, 6 mo): <0.05 w/w %
TM3 (5 °C, Air, 6 mo): 0.94 w/w %
(NH4)6Mo7O24 (5 °C, Air, Initial): <0.05 w/w %
ATTM (5 °C, Air, Initial): 98.8 w/w %
Dimer S6 (5 °C, Air, Initial): <0.05 w/w %
Insoluble materials (5 °C, Air, Initial): <0.1 w/w %
TM1 (5 °C, Air, Initial): <0.05 w/w %
TM2 (5 °C, Air, Initial): <0.05 w/w %
TM3 (5 °C, Air, Initial): 0.77 w/w %
(NH4)6Mo7O24 (5 °C, Ar, 3 mo): <0.05 w/w %
ATTM (5 °C, Ar, 3 mo): 99.1 w/w %
Dimer S6 (5 °C, Ar, 3 mo): <0.05 w/w %
TM1 (5 °C, Ar, 3 mo): <0.05 w/w %
TM2 (5 °C, Ar, 3 mo): <0.05 w/w %
TM3 (5 °C, Ar, 3 mo): 0.96 w/w %
(NH4)6Mo7O24 (5 °C, Ar, 6 mo): <0.05 w/w %
ATTM (5 °C, Ar, 6 mo): 99.0 w/w %
Dimer S6 (5 °C, Ar, 6 mo): <0.05 w/w %
Insoluble materials (5 °C, Ar, 6 mo): <0.1 w/w %
TM1 (5 °C, Ar, 6 mo): <0.05 w/w %
TM2 (5 °C, Ar, 6 mo): <0.05 w/w %
TM3 (5 °C, Ar, 6 mo): 0.97 w/w %
(NH4)6Mo7O24 (5 °C, Ar, Initial): <0.05 w/w %
ATTM (5 °C, Ar, Initial): 98.8 w/w %
Dimer S6 (5 °C, Ar, Initial): <0.05 w/w %
Insoluble materials (5 °C, Ar, Initial): <0.1 w/w %
TM1 (5 °C, Ar, Initial): <0.05 w/w %
TM2 (5 °C, Ar, Initial): <0.05 w/w %
TM3 (5 °C, Ar, Initial): 0.77 w/w %
(NH4)6Mo7O24 (−20 °C, Air, 3 mo): <0.05 w/w %
ATTM (−20 °C, Air, 3 mo): 99.3 w/w %
Dimer S6 (−20 °C, Air, 3 mo): <0.05 w/w %
TM1 (−20 °C, Air, 3 mo): <0.05 w/w %
TM2 (−20 °C, Air, 3 mo): <0.05 w/w %
TM3 (−20 °C, Air, 3 mo): 0.93 w/w %
(NH4)6Mo7O24 (−20 °C, Air, 6 mo): <0.05 w/w %
ATTM (−20 °C, Air, 6 mo): 99.0 w/w %
Dimer S6 (−20 °C, Air, 6 mo): <0.05 w/w %
Insoluble materials (−20 °C, Air, 6 mo): <0.1 w/w %
TM1 (−20 °C, Air, 6 mo): <0.05 w/w %
TM2 (−20 °C, Air, 6 mo): <0.05 w/w %
TM3 (−20 °C, Air, 6 mo): 0.82 w/w %
(NH4)6Mo7O24 (−20 °C, Air, Initial): <0.05 w/w %
ATTM (−20 °C, Air, Initial): 98.8 w/w %
Dimer S6 (−20 °C, Air, Initial): <0.05 w/w %
Insoluble materials (−20 °C, Air, Initial): <0.1 w/w %
TM1 (−20 °C, Air, Initial): <0.05 w/w %
TM2 (−20 °C, Air, Initial): <0.05 w/w %
TM3 (−20 °C, Air, Initial): 0.77 w/w %
(NH4)6Mo7O24 (−20 °C, Ar, 3 mo): <0.05 w/w %
ATTM (−20 °C, Ar, 3 mo): 99.5 w/w %
Dimer S6 (−20 °C, Ar, 3 mo): <0.05 w/w %
TM1 (−20 °C, Ar, 3 mo): <0.05 w/w %
TM2 (−20 °C, Ar, 3 mo): <0.05 w/w %
TM3 (−20 °C, Ar, 3 mo): 1.05 w/w %
(NH4)6Mo7O24 (−20 °C, Ar, 6 mo): <0.05 w/w %
ATTM (−20 °C, Ar, 6 mo): 99.1 w/w %
Dimer S6 (−20 °C, Ar, 6 mo): <0.05 w/w %
Insoluble materials (−20 °C, Ar, 6 mo): <0.1 w/w %
TM1 (−20 °C, Ar, 6 mo): <0.05 w/w %
TM2 (−20 °C, Ar, 6 mo): <0.05 w/w %
TM3 (−20 °C, Ar, 6 mo): 0.88 w/w %
(NH4)6Mo7O24 (−20 °C, Ar, Initial): <0.05 w/w %
ATTM (−20 °C, Ar, Initial): 98.8 w/w %
Dimer S6 (−20 °C, Ar, Initial): <0.05 w/w %
Insoluble materials (−20 °C, Ar, Initial): <0.1 w/w %
TM1 (−20 °C, Ar, Initial): <0.05 w/w %
TM2 (−20 °C, Ar, Initial): <0.05 w/w %
TM3 (−20 °C, Ar, Initial): 0.77 w/w %

[NH4+].[NH4+].[SH-].[SH-].[S]=[Mo]=[S] [Sample 2, ammonium tetrathiomolybdate]
(NH4)6Mo7O24 (5 °C, Air, 3 mo): <0.05 w/w %
ATTM (5 °C, Air, 3 mo): 98.6 w/w %
Dimer S6 (5 °C, Air, 3 mo): <0.05 w/w %
TM1 (5 °C, Air, 3 mo): <0.05 w/w %
TM2 (5 °C, Air, 3 mo): <0.05 w/w %
TM3 (5 °C, Air, 3 mo): 1.13 w/w %
(NH4)6Mo7O24 (5 °C, Air, 6 mo): <0.05 w/w %
ATTM (5 °C, Air, 6 mo): 97.9 w/w %
Dimer S6 (5 °C, Air, 6 mo): <0.05 w/w %
Insoluble materials (5 °C, Air, 6 mo): <0.1 w/w %
TM1 (5 °C, Air, 6 mo): <0.05 w/w %
TM2 (5 °C, Air, 6 mo): <0.05 w/w %
TM3 (5 °C, Air, 6 mo): 0.95 w/w %
(NH4)6Mo7O24 (5 °C, Air, Initial): <0.05 w/w %
ATTM (5 °C, Air, Initial): 98.8 w/w %
Dimer S6 (5 °C, Air, Initial): <0.05 w/w %
Insoluble materials (5 °C, Air, Initial): <0.1 w/w %
TM1 (5 °C, Air, Initial): <0.05 w/w %
TM2 (5 °C, Air, Initial): <0.05 w/w %
TM3 (5 °C, Air, Initial): 1.01 w/w %
(NH4)6Mo7O24 (5 °C, Ar, 3 mo): <0.05 w/w %
ATTM (5 °C, Ar, 3 mo): 99.0 w/w %
Dimer S6 (5 °C, Ar, 3 mo): <0.05 w/w %
TM1 (5 °C, Ar, 3 mo): <0.05 w/w %
TM2 (5 °C, Ar, 3 mo): <0.05 w/w %
TM3 (5 °C, Ar, 3 mo): 0.99 w/w %
(NH4)6Mo7O24 (5 °C, Ar, 6 mo): <0.05 w/w %
ATTM (5 °C, Ar, 6 mo): 98.2 w/w %
Dimer S6 (5 °C, Ar, 6 mo): <0.05 w/w %
Insoluble materials (5 °C, Ar, 6 mo): <0.1 w/w %
TM1 (5 °C, Ar, 6 mo): <0.05 w/w %
TM2 (5 °C, Ar, 6 mo): <0.05 w/w %
TM3 (5 °C, Ar, 6 mo): 1.03 w/w %
(NH4)6Mo7O24 (5 °C, Ar, Initial): <0.05 w/w %
ATTM (5 °C, Ar, Initial): 98.8 w/w %
Dimer S6 (5 °C, Ar, Initial): <0.05 w/w %
Insoluble materials (5 °C, Ar, Initial): <0.1 w/w %
TM1 (5 °C, Ar, Initial): <0.05 w/w %
TM2 (5 °C, Ar, Initial): <0.05 w/w %
TM3 (5 °C, Ar, Initial): 1.01 w/w %
(NH4)6Mo7O24 (−20 °C, Air, 3 mo): <0.05 w/w %
ATTM (−20 °C, Air, 3 mo): 99.4 w/w %
Dimer S6 (−20 °C, Air, 3 mo): <0.05 w/w %
TM1 (−20 °C, Air, 3 mo): <0.05 w/w %
TM2 (−20 °C, Air, 3 mo): <0.05 w/w %
TM3 (−20 °C, Air, 3 mo): 0.92 w/w %
(NH4)6Mo7O24 (−20 °C, Air, 6 mo): <0.05 w/w %
ATTM (−20 °C, Air, 6 mo): 98.2 w/w %
Dimer S6 (−20 °C, Air, 6 mo): <0.05 w/w %
Insoluble materials (−20 °C, Air, 6 mo): <0.1 w/w %
TM1 (−20 °C, Air, 6 mo): <0.05 w/w %
TM2 (−20 °C, Air, 6 mo): <0.05 w/w %
TM3 (−20 °C, Air, 6 mo): 1.13 w/w %
(NH4)6Mo7O24 (−20 °C, Air, Initial): <0.05 w/w %
ATTM (−20 °C, Air, Initial): 98.8 w/w %
Dimer S6 (−20 °C, Air, Initial): <0.05 w/w %
Insoluble materials (−20 °C, Air, Initial): <0.1 w/w %
TM1 (−20 °C, Air, Initial): <0.05 w/w %
TM2 (−20 °C, Air, Initial): <0.05 w/w %
TM3 (−20 °C, Air, Initial): 1.01 w/w %
(NH4)6Mo7O24 (−20 °C, Ar, 3 mo): <0.05 w/w %
ATTM (−20 °C, Ar, 3 mo): 99.1 w/w %
Dimer S6 (−20 °C, Ar, 3 mo): <0.05 w/w %
TM1 (−20 °C, Ar, 3 mo): <0.05 w/w %
TM2 (−20 °C, Ar, 3 mo): <0.05 w/w %
TM3 (−20 °C, Ar, 3 mo): 1.07 w/w %
(NH4)6Mo7O24 (−20 °C, Ar, 6 mo): <0.05 w/w %
ATTM (−20 °C, Ar, 6 mo): 98.2 w/w %
Dimer S6 (−20 °C, Ar, 6 mo): <0.05 w/w %
Insoluble materials (−20 °C, Ar, 6 mo): <0.1 w/w %
TM1 (−20 °C, Ar, 6 mo): <0.05 w/w %
TM2 (−20 °C, Ar, 6 mo): <0.05 w/w %
TM3 (−20 °C, Ar, 6 mo): 0.98 w/w %
(NH4)6Mo7O24 (−20 °C, Ar, Initial): <0.05 w/w %
ATTM (−20 °C, Ar, Initial): 98.8 w/w %
Dimer S6 (−20 °C, Ar, Initial): <0.05 w/w %
Insoluble materials (−20 °C, Ar, Initial): <0.1 w/w %
TM1 (−20 °C, Ar, Initial): <0.05 w/w %
TM2 (−20 °C, Ar, Initial): <0.05 w/w %
TM3 (−20 °C, Ar, Initial): 1.01 w/w %
